Columns and labels:
[1] = system: AMATU WR-2012-017-08 (resistant against HPPD-inhibitor herbicides and atrazine (PSII-inhibitor)); test: Greenhouse pre-emergence herbicidal activity, AMATU WR-2012-017-08; type: in vivo, Amaranthus tuberculatus; conditions: 3 weeks, mean of 6
[2] = system: AMATU WR-2013-044 (resistant against HPPD-inhibitor herbicides and atrazine (PSII-inhibitor)); test: Greenhouse pre-emergence herbicidal activity, AMATU WR-2013-044; type: in vivo, Amaranthus tuberculatus; conditions: 3 weeks, mean of 6

SMILES	Activity [%] against AMATU WR-2012-017-08 ([1]; rate 75 g/ha)	Activity [%] against AMATU WR-2012-017-08 ([1]; rate 150 g/ha)	Activity [%] against AMATU WR-2013-044 ([2]; rate 75 g/ha)	Activity [%] against AMATU WR-2013-044 ([2]; rate 150 g/ha)	Activity [%] against AMATU WR-2012-017-08 ([1]; rate 52 g/ha)	Activity [%] against AMATU WR-2012-017-08 ([1]; rate 105 g/ha)	Activity [%] against AMATU WR-2013-044 ([2]; rate 52 g/ha)	Activity [%] against AMATU WR-2013-044 ([2]; rate 105 g/ha)
O=C(Nc1ccc(F)cc1F)c1cccnc1Oc1cccc(C(F)(F)F)c1 [DFF, 2′,4′-difluoro-2-[3-(trifluoromethyl)phenoxy]pyridine-3-carboxanilide]	66.7%	86.3%	69.2%	80.8%				
CS(=O)(=O)c1ccc(C(=O)C2C(=O)CCCC2=O)c([N+](=O)[O-])c1 [MST, 2-[4-(methylsulfonyl)-2-nitrobenzoyl]cyclohexane-1,3-dione]					59.2%	84.2%	70.0%	76.7%

Reference: US12616200B2, “Herbicidal combinations comprising diflufenican and mesotrione” (priority 2020, dated 2026)
